Key:
Assay type in all cases: in vivo
[1] = system: upland rice (Oryza sp., var. Tebonnet, RICE); test: Post-emerge test, crop safety; conditions: post-emerge, 14 days after application, rating scale 0-100
Summary of the method: (§1)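 Compounds in acetone were track-sprayed at 187 l/ha, 15–1000 g ai/ha, onto sandy loam pots. Pre-emerge seeds were sown one day before spraying, with surface watering afterwards. Post-emerge plants were at the 2–3 leaf stage and sprayed with 0.25% v/v non-ionic surfactant. Injury was rated 0–100 at 14 days.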

[2] = system: field corn (Zea mays L., var. Dekalb 535, CORN); test: Post-emerge test, crop safety; conditions: post-emerge, 14 days after application, rating scale 0-100
Summary of the method: as §1

[3] = system: large crabgrass (Digitaria sanguinalis, DIGSA); test: Post-emerge test, greenhouse herbicide activity screening; conditions: post-emerge, 14 days after application, rating scale 0-100
Description: (§2) A standard greenhouse herbicide activity screening system was used to evaluate the herbicidal efficacy and crop safety of these test compounds. Seven broadleaf weed species including redroot pigweed (Amaranthus retroflexus, AMARE, velvetleaf (Abutilon theophrasti, ABUTH), sicklepod (Cassia obtusifolia, CASOB), ivyleaf morningglory (Ipomoea hederacea, IPOHE), lambsquarters (Chenopodium album, CHEAL), common ragweed (Ambrosia artemisizfolia L., AMBEL), and cocklebur (Xanthium strumarium, XANST) were used as test species. Four grass weed species including green foxtail (Setaria viridis, SETVI), barnyardgrass (Echinochloa crus-galli, ECHCG), johnsongrass (Sorghum halepense, SORHA), and large crabgrass (Digitaria sanguinalis, DIGSA) were also used. In addition, three crop species, field corn (Zea mays L., var. Dekalb 535, CORN), soybean (Glycine max L., var. Pella 86, SOY), and is upland rice (Oryza sp., var. Tebonnet, RICE) were included.
(§3) All plants were grown in 10 cm square plastic pots which were filled with a sandy loam soil mix. For pre-emerge tests, seeds were planted one day prior to application of the test compounds. For post-emerge tests, seeds were planted 8-21 days prior to the test to allow emergence and good foliage development prior to application of the test substances. At the time of the post-emerge application, plants of all species were usually at the 2-3 leaf stage of development.
(§4) All test compounds Were dissolved in acetone and applied to the test units in a volume of 187 l /ha. Test materials were applied at rates ranging from 15 g ai/ha to 1000 g ai/ha using a track sprayer equipped with a TJ8001E even flow flat fan spray nozzle. Plants were arranged on a shelf so that the top of the canopy (post-emerge) or top of the soil surface (pre-emerge) was 40-45 cm below the nozzle. Pressurized air was used to force the test solution through the nozzle as it was mechanically advanced (via electrically driven chain drive) over the top of all test plants/pots. This application simulates a typical commercial field herbicide application.
(§5) In the post-emerge test, a commercial non-ionic surfactant was also included (0.25% v/v) to enhance wetting of the leaf surfaces of target plants. Immediately after application, test units of the pre-emerge applications were watered at the soil surface to incorporate the test materials. Subsequently, these test units were bottom-watered. Post-emerge test units were always bottom-watered.
(§6) At 14 days after application of the test materials, phytotoxicity ratings were recorded. A rating scale of 0-100 was used as previously described in Research Methods in Weed Science, 2nd edition, B. Truelove, Ed., Southern Weed Science Society, Auburn University, Auburn, Ala. 1977. Briefly, “0” corresponds to no damage and “100” corresponds to complete death of all plants in the test unit. This scale was used both to determine efficacy against weed species and damage to crop species. Herbicide activity data for various compounds of this invention, which are shown by compound No. in Tables 1-8, are shown in Tables 11 and 12.

[4] = system: lambsquarters (Chenopodium album, CHEAL); test: as above; conditions: post-emerge, 14 days after application, rating scale 0-100
Description: as §2, §3, §4, §5, §6

[5] = system: redroot pigweed (Amaranthus retroflexus, AMARE); test: as above; conditions: post-emerge, 14 days after application
Description: as §2, §3, §4, §5, §6

[6] = system: velvetleaf (Abutilon theophrasti, ABUTH); test: as above; conditions: post-emerge, 14 days after application, rating scale 0-100
Description: as §2, §3, §4, §5, §6

[7] = system: barnyardgrass (Echinochloa crus-galli, ECHCG); test: as above; conditions: post-emerge, 14 days after application, rating scale 0-100
Description: as §2, §3, §4, §5, §6

[8] = system: ivyleaf morningglory (Ipomoea hederacea, IPOHE); test: as above; conditions: post-emerge, 14 days after application, rating scale 0-100
Description: as §2, §3, §4, §5, §6

[9] = system: sicklepod (Cassia obtusifolia, CASOB); test: as above; conditions: post-emerge, 14 days after application, rating scale 0-100
Description: as §2, §3, §4, §5, §6

[10] = system: green foxtail (Setaria viridis, SETVI); test: as above; conditions: post-emerge, 14 days after application, rating scale 0-100
Description: as §2, §3, §4, §5, §6

[11] = system: redroot pigweed (Amaranthus retroflexus, AMARE); test: Pre-emerge test, greenhouse herbicide activity screening; conditions: phytotoxicity rating 0-100, 14 days after application
Summary of the method: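 Herbicidal damage is scored 0 (none) to 100 (complete plant death) two weeks after a simulated field spray. Rates span 15–1000 g ai/ha, delivered in acetone at 187 l/ha. For post-emergence treatments, plants have 2–3 leaves and the spray carries 0.25% v/v non-ionic surfactant.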

[12] = system: upland rice (Oryza sp., var. Tebonnet, RICE); test: Pre-emerge test, crop safety; conditions: crop damage rating 0-100, 14 days after application
Summary of the method: as §1

[13] = system: field corn (Zea mays L., var. Dekalb 535, CORN); test: Pre-emerge test, crop safety; conditions: crop damage rating 0-100, 14 days after application
Summary of the method: as §1

[14] = system: large crabgrass (Digitaria sanguinalis, DIGSA); test: Pre-emerge test, greenhouse herbicide activity screening; conditions: phytotoxicity rating 0-100, 14 days after application
Description: as §2, §3, §4, §5, §6

[15] = system: lambsquarters (Chenopodium album, CHEAL); test: as above; conditions: phytotoxicity rating 0-100, 14 days after application
Description: as §2, §3, §4, §5, §6

[16] = system: velvetleaf (Abutilon theophrasti, ABUTH); test: as above; conditions: phytotoxicity rating 0-100, 14 days after application
Description: as §2, §3, §4, §5, §6

[17] = system: barnyardgrass (Echinochloa crus-galli, ECHCG); test: as above; conditions: phytotoxicity rating 0-100, 14 days after application
Description: as §2, §3, §4, §5, §6

[18] = system: ivyleaf morningglory (Ipomoea hederacea, IPOHE); test: as above; conditions: phytotoxicity rating 0-100, 14 days after application
Description: as §2, §3, §4, §5, §6

[19] = system: sicklepod (Cassia obtusifolia, CASOB); test: as above; conditions: phytotoxicity rating 0-100, 14 days after application
Description: as §2, §3, §4, §5, §6

[20] = system: green foxtail (Setaria viridis, SETVI); test: as above; conditions: phytotoxicity rating 0-100, 14 days after application
Description: as §2, §3, §4, §5, §6

[21] = 63 g ai/ha, rating scale 0-100 (0 no damage, 100 complete death)
[22] = 250 g ai/ha, rating scale 0-100

| Structure (SMILES) | phytotoxicity rating RICE (crop damage) ([1]; 63 g ai/ha) | phytotoxicity rating RICE (crop damage) ([1]; 250 g ai/ha) | phytotoxicity rating CORN (crop damage) ([2]; 63 g ai/ha) | phytotoxicity rating CORN (crop damage) ([2]; 250 g ai/ha) | phytotoxicity rating DIGSA ([3]; 63 g ai/ha) | phytotoxicity rating DIGSA ([3]; 250 g ai/ha) | phytotoxicity rating CHEAL ([4]; 63 g ai/ha) | phytotoxicity rating CHEAL ([4]; 250 g ai/ha) | phytotoxicity rating AMARE [5, 21] | phytotoxicity rating AMARE [5, 22] | phytotoxicity rating ABUTH ([6]; 63 g ai/ha) | phytotoxicity rating ABUTH ([6]; 250 g ai/ha) | phytotoxicity rating ECHCG ([7]; 63 g ai/ha) | phytotoxicity rating ECHCG ([7]; 250 g ai/ha) | phytotoxicity rating IPOHE ([8]; 63 g ai/ha) | phytotoxicity rating IPOHE ([8]; 250 g ai/ha) | phytotoxicity rating CASOB ([9]; 63 g ai/ha) | phytotoxicity rating CASOB ([9]; 250 g ai/ha) | phytotoxicity rating SETVI ([10]; 63 g ai/ha) | phytotoxicity rating SETVI ([10]; 250 g ai/ha) | other results |
| --- | --- | --- | --- | --- | --- | --- | --- | --- | --- | --- | --- | --- | --- | --- | --- | --- | --- | --- | --- | --- | --- |
| COc1c(Cl)cc(F)c(-n2c(=O)cc(C(F)(F)F)n(C)c2=O)c1NC(=O)OCc1cc(F)ccc1F [4-39] | 60 | 60 | 70 | 100 | 50 | 80 | 100 | 100 | 100 | 100 | 100 | 100 | 60 | 90 | 100 | 100 | 100 | 100 | 80 | 90 | Pre-emerge Herbicidal Activity AMARE ([11]; 63 g ai/ha): 100; Pre-emerge Herbicidal Activity AMARE ([11]; 250 g ai/ha): 100; Pre-emerge Herbicidal Activity RICE ([12]; 63 g ai/ha): 80; Pre-emerge Herbicidal Activity RICE ([12]; 250 g ai/ha): 80; Pre-emerge Herbicidal Activity CORN ([13]; 63 g ai/ha): 70; Pre-emerge Herbicidal Activity CORN ([13]; 250 g ai/ha): 90; Pre-emerge Herbicidal Activity DIGSA ([14]; 63 g ai/ha): 100; Pre-emerge Herbicidal Activity DIGSA ([14]; 250 g ai/ha): 100; Pre-emerge Herbicidal Activity CHEAL ([15]; 63 g ai/ha): 100; Pre-emerge Herbicidal Activity CHEAL ([15]; 250 g ai/ha): 100; Pre-emerge Herbicidal Activity ABUTH ([16]; 63 g ai/ha): 100; Pre-emerge Herbicidal Activity ABUTH ([16]; 250 g ai/ha): 100; Pre-emerge Herbicidal Activity ECHCG ([17]; 63 g ai/ha): 60; Pre-emerge Herbicidal Activity ECHCG ([17]; 250 g ai/ha): 80; Pre-emerge Herbicidal Activity IPOHE ([18]; 63 g ai/ha): 80; Pre-emerge Herbicidal Activity IPOHE ([18]; 250 g ai/ha): 100; Pre-emerge Herbicidal Activity CASOB ([19]; 63 g ai/ha): 30; Pre-emerge Herbicidal Activity CASOB ([19]; 250 g ai/ha): 90; Pre-emerge Herbicidal Activity SETVI ([20]; 63 g ai/ha): 100; Pre-emerge Herbicidal Activity SETVI ([20]; 250 g ai/ha): 100 |
| COc1ccc(COC(=O)Nc2c(OC)c(Cl)cc(F)c2-n2c(=O)cc(C(F)(F)F)n(C)c2=O)cc1 [4-40] | 40 | 60 | 30 | 70 | 40 | 90 | 100 | 100 | 100 | 100 | 100 | 100 | 50 | 90 | 100 | 100 | 100 | 100 | 80 | 90 | Pre-emerge Herbicidal Activity AMARE ([11]; 63 g ai/ha): 100; Pre-emerge Herbicidal Activity AMARE ([11]; 250 g ai/ha): 100; Pre-emerge Herbicidal Activity RICE ([12]; 63 g ai/ha): 30; Pre-emerge Herbicidal Activity RICE ([12]; 250 g ai/ha): 70; Pre-emerge Herbicidal Activity CORN ([13]; 63 g ai/ha): 0; Pre-emerge Herbicidal Activity CORN ([13]; 250 g ai/ha): 75; Pre-emerge Herbicidal Activity DIGSA ([14]; 63 g ai/ha): 100; Pre-emerge Herbicidal Activity DIGSA ([14]; 250 g ai/ha): 100; Pre-emerge Herbicidal Activity CHEAL ([15]; 63 g ai/ha): 100; Pre-emerge Herbicidal Activity CHEAL ([15]; 250 g ai/ha): 100; Pre-emerge Herbicidal Activity ABUTH ([16]; 63 g ai/ha): 100; Pre-emerge Herbicidal Activity ABUTH ([16]; 250 g ai/ha): 100; Pre-emerge Herbicidal Activity ECHCG ([17]; 63 g ai/ha): 60; Pre-emerge Herbicidal Activity ECHCG ([17]; 250 g ai/ha): 85; Pre-emerge Herbicidal Activity IPOHE ([18]; 63 g ai/ha): 30; Pre-emerge Herbicidal Activity IPOHE ([18]; 250 g ai/ha): 90; Pre-emerge Herbicidal Activity CASOB ([19]; 63 g ai/ha): 60; Pre-emerge Herbicidal Activity CASOB ([19]; 250 g ai/ha): 90; Pre-emerge Herbicidal Activity SETVI ([20]; 63 g ai/ha): 100; Pre-emerge Herbicidal Activity SETVI ([20]; 250 g ai/ha): 100 |
